Assays:
Assay in all cases: relative viability (nuclei count vs DMSO), 5 days (fraction); higher = more cells survive
NCI-H2085 = tested on: NCI-H2085
Method in brief: (§1)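 The day after seeding in 1536-well plates, lung cancer cell lines were treated by pin tool with a single drug, or with a fixed anchor-drug dose together with five library-drug doses (not always all listed) in √10 steps. After 5 days, a combined fix-and-stain solution (final 0.05% Triton X-100, 1% formaldehyde, 1 ug/ml Hoechst) was added. Nuclei counted on 4× images gave relative viability as treated counts over vehicle counts, reported as the median of duplicate plates.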

NCI-H2126 = tested on: NCI-H2126
Method in brief: as §1

NCI-H2342 = tested on: NCI-H2342
Method in brief: as §1

NCI-H2347 = tested on: NCI-H2347
Method in brief: as §1

NCI-H358 = tested on: NCI-H358
Method in brief: as §1

NCI-H460 = tested on: NCI-H460
Method in brief: as §1

NCI-H522 = tested on: NCI-H522
Method in brief: as §1

NCI-H650 = tested on: NCI-H650
Method in brief: as §1

NCI-H838 = tested on: NCI-H838
Method in brief: as §1

PC-14 = tested on: PC-14
Method in brief: as §1

SW 1573 = tested on: SW 1573
Method in brief: as §1

UMC-11 = tested on: UMC-11
Method in brief: as §1

Work on `COc1cc(N2CCC(C(N)=O)CC2)ccc1Nc1nc(N)c(Cl)c(Nc2ccccc2S(=O)(=O)C(C)C)n1` [HG-5-88-01] + CC(=O)Nc1cccc(-n2c(=O)n(C3CC3)c(=O)c3c(Nc4ccc(I)cc4F)n(C)c(=O)c(C)c32)c1 [Trametinib] (partner 0.02 µM) yielded a relative viability (NCI-H2085; first compound 0.4 µM) of 0.502, a relative viability (NCI-H2085; first compound 1.265 µM) of 0.478 and a relative viability (NCI-H2085; first compound 4 µM) of 0.432. The relative viability (NCI-H2126; first compound 0.04 µM) was 0.592, the relative viability (NCI-H2126; first compound 0.1265 µM) was 0.564 and the relative viability (NCI-H2126; first compound 0.4 µM) was 0.557. For the same compound, the relative viability (NCI-H2126; first compound 1.265 µM) was 0.543, the relative viability (NCI-H2126; first compound 4 µM) was 0.558 and the relative viability (NCI-H2342; first compound 0.04 µM) was 0.846. It also gave a relative viability (NCI-H2342; first compound 0.1265 µM) of 0.939, a relative viability (NCI-H2342; first compound 0.4 µM) of 0.865 and a relative viability (NCI-H2342; first compound 4 µM) of 0.969. The relative viability (NCI-H2347; first compound 0.04 µM) was 0.324, the relative viability (NCI-H2347; first compound 0.1265 µM) was 0.284 and the relative viability (NCI-H2347; first compound 0.4 µM) was 0.227. It also gave a relative viability (NCI-H2347; first compound 1.265 µM) of 0.229, a relative viability (NCI-H2347; first compound 4 µM) of 0.247 and a relative viability (NCI-H358; first compound 0.04 µM) of 0.123. For the same compound, the relative viability (NCI-H358; first compound 0.1265 µM) was 0.124, the relative viability (NCI-H358; first compound 0.4 µM) was 0.131 and the relative viability (NCI-H358; first compound 1.265 µM) was 0.106. The relative viability (NCI-H358; first compound 4 µM) was 0.105, the relative viability (NCI-H460; first compound 0.04 µM) was 0.131 and the relative viability (NCI-H460; first compound 0.1265 µM) was 0.124. The relative viability (NCI-H460; first compound 0.4 µM) was 0.13, the relative viability (NCI-H460; first compound 1.265 µM) was 0.0779 and the relative viability (NCI-H460; first compound 4 µM) was 0.123. It also gave a relative viability (NCI-H522; first compound 0.04 µM) of 0.683, a relative viability (NCI-H522; first compound 0.1265 µM) of 0.784 and a relative viability (NCI-H522; first compound 0.4 µM) of 0.695. It also gave a relative viability (NCI-H522; first compound 1.265 µM) of 0.705, a relative viability (NCI-H522; first compound 4 µM) of 0.636 and a relative viability (NCI-H650; first compound 0.04 µM) of 1.09. It also gave a relative viability (NCI-H650; first compound 0.1265 µM) of 1.11, a relative viability (NCI-H650; first compound 0.4 µM) of 0.987 and a relative viability (NCI-H650; first compound 1.265 µM) of 0.696. For the same compound, the relative viability (NCI-H650; first compound 4 µM) was 0.786, the relative viability (NCI-H838; first compound 0.04 µM) was 0.518 and the relative viability (NCI-H838; first compound 0.1265 µM) was 0.439. The relative viability (NCI-H838; first compound 0.4 µM) was 0.435, the relative viability (NCI-H838; first compound 1.265 µM) was 0.409 and the relative viability (NCI-H838; first compound 4 µM) was 0.354. For the same compound, the relative viability (PC-14; first compound 0.04 µM) was 0.825, the relative viability (PC-14; first compound 0.1265 µM) was 0.836 and the relative viability (PC-14; first compound 0.4 µM) was 0.626. For the same compound, the relative viability (PC-14; first compound 1.265 µM) was 0.28, the relative viability (PC-14; first compound 4 µM) was 0.0722 and the relative viability (SW 1573; first compound 0.04 µM) was 0.598. It also gave a relative viability (SW 1573; first compound 0.1265 µM) of 0.533, a relative viability (SW 1573; first compound 0.4 µM) of 0.581 and a relative viability (SW 1573; first compound 1.265 µM) of 0.464. The relative viability (SW 1573; first compound 4 µM) was 0.52, the relative viability (UMC-11; first compound 0.04 µM) was 0.532 and the relative viability (UMC-11; first compound 0.1265 µM) was 0.861. It also gave a relative viability (UMC-11; first compound 0.4 µM) of 0.727, a relative viability (UMC-11; first compound 1.265 µM) of 0.707 and a relative viability (UMC-11; first compound 4 µM) of 0.531.

From the supplement of paper PMC10307832
